Reference: ChEMBL document CHEMBL3430912, “GSK Tres Cantos Anti-Kinetoplastid Screening (TCAKS) Data”

What was measured:
Trypanosoma cruzi [1] = test: (§1) GSK_TCAKS: pIC50 Trypanosoma cruzi Imaging: Infected Cells. […] Cells were then washed once with PBS before infection. T. cruzi trypomastigotes, collected at days 5 to 8 after infection from LLC-MK2 parasite infected cultures, were allowed to swim out for 4h at 37C from a centrifuged pellet (2,500 rpm/10 min/room temperature). Trypomastigotes were then collected and counted in a CASY Cell Counter. Trypomastigotes, in supplemented DMEM, were added to H9c2 cultures in a multiplicity of infection of 1 and incubated for 18 h. Cells were washed once with PBS before incubation of the infected H9c2 monolayer with trypsin (Life-Technologies) to detach cells from the flask. Cells were counted in a CASY Cell Counter using a 150 um capillary and their density set at 5 * 10^4 cells per mL in supplemented assay DMEM. Infected H9c2 were dispensed into 384-well poly-lysine coated assay plates at 50uL per well using a Multidrop Combi dispenser. After seeding them, the plates were incubated at 37C, 5% CO2 for 72h. Cultures were then fixed and stained by addition of 50 uL of a solution containing 8% formaldehyde and 4 uM DRAQ5 DNA dye (BioStatus, UK) per well. […] Five images were collected per well for reliable statistical analysis. Automated image analysis was performed with a script developed on Acapella High Content Imaging and Analysis Software (PerkinElmer). Output: percentage of infected cells per well as a second infection marker.; format: functional, organism-based, Rattus norvegicus; details: H9c2, 4 h
Trypanosoma cruzi [2] = test: as §1, with “H2C9” for “Trypanosoma cruzi”, “H9c2 Host Cardiomyocytes.” for “Infected Cells.”, “Number” for “percentage”, “H9c2 Host Cardiomyocytes nuclei to determine drug-related cytotoxicity.” for “infected cells per well as a second infection marker.”; format: functional, organism-based, Rattus norvegicus; details: H9c2, 4 h
[3] = tested on: Trypanosoma brucei brucei; test: GSK_TCAKS: pIC50 Trypanosoma brucei viability assay using fluorescence intensity. Assay plates (1536-well) were prepared by dispensing 25nL of compound solution per well using an Echo acoustic dispenser (Labcyte).; format: functional, organism-based; details: Lister 427, 2 h
Trypanosoma cruzi [4] = test: GSK_TCAKS: pIC50 Trypanosoma cruzi viability assay using beta-GAL activity. This assay was run at single shot at 5uM compound concentration per well. The biological reagents consisted of NIH-3T3 host cells and trypomastigotes parasitic cells; both cell types were set to a 3.3 * 10^5 cells/mL dilution in assay DMEM by means of a CASY cell counter device using a 60um capillary. 6 uL of the mixture were dispensed per well (about 1 * 10^3 host-cells and 1 * 10^3 parasites) with a Multidrop Combi dispenser. […] In all wells, the percentage of DMSO never exceeded 0.5%. Plates incubated for four days at 37C, 5% CO2. The substrate used for the assay fluorescence intensity (FLINT) readout was resorufin-beta-D-galactopiranoside (Sigma-Aldrich) at 5uM per well. It was diluted in PBS supplemented with the soft detergent Igepal (Fluka).; format: functional, organism-based, Mus musculus; details: Tulahuen, NIH3T3
Trypanosoma cruzi [5] = test: GSK_TCAKS: pIC50 Trypanosoma cruzi Imaging: Amastigotes/Cell. […] Cells were then washed once with PBS before infection. T. cruzi trypomastigotes, collected at days 5 to 8 after infection from LLC-MK2 parasite infected cultures, were allowed to swim out for 4h at 37C from a centrifuged pellet (2,500 rpm/10 min/room temperature). Trypomastigotes were then collected and counted in a CASY Cell Counter. Trypomastigotes, in supplemented DMEM, were added to H9c2 cultures in a multiplicity of infection of 1 and incubated for 18 h. Cells were washed once with PBS before incubation of the infected H9c2 monolayer with trypsin (Life-Technologies) to detach cells from the flask. Cells were counted in a CASY Cell Counter using a 150 um capillary and their density set at 5 * 10^4 cells per mL in supplemented assay DMEM. Infected H9c2 were dispensed into 384-well poly-lysine coated assay plates at 50uL per well using a Multidrop Combi dispenser. After seeding them, the plates were incubated at 37C, 5% CO2 for 72h. Cultures were then fixed and stained by addition of 50 uL of a solution containing 8% formaldehyde and 4 uM DRAQ5 DNA dye (BioStatus, UK) per well. […] Five images were collected per well for reliable statistical analysis. Automated image analysis was performed with a script developed on Acapella High Content Imaging and Analysis Software (PerkinElmer). Output: number of amastigotes per cell as infection level measurement.; format: functional, organism-based, Rattus norvegicus; details: H9c2, 4 h
Leishmania donovani [6] = test: (§2) GSK_TCAKS: pIC50 Leishmania donovani Imaging: Infected Macrophages. Assay plates (384-well) were prepared by adding 250nL of compound to each well. For single shot assay, the final compound concentration was 5 uM. […] Automated image analysis was performed with a script developed on Acapella High Content Imaging and Analysis Software (PerkinElmer). Output: Percent of infected macrophage cells were reported for each well.; format: functional, organism-based, Homo sapiens; details: THP-1
[7] = target: Sterol 14-alpha demethylase (Trypanosoma cruzi (strain CL Brener), UniProt Q7Z1V1); test: GSK_TCAKS: pIC50 CYP51 from Trypanosoma cruzi.; format: functional
Leishmania donovani [8] = test: as §2, with “Amastigotes/Macrophages.” for “Infected Macrophages.”, “Average number” for “Percent”, “amastigotes per” for “infected”, “cell” for “cells”; format: functional, organism-based, Homo sapiens; details: THP-1
[9] = tested on: Trypanosoma brucei brucei; test: GSK_TCAKS: pIC50 Trypanosoma brucei viability assay using luminiscence. Assay plates (1536-well) were prepared. T. brucei cultures were harvested and counted in a CASY cell counter. A parasite suspension was prepared at a final concentration of 5 * 10^4 cells/mL in complete HMI9 medium and 6uL was dispensed to all wells containing compounds using a Multidrop Combi dispenser. 6uL of HMI9 media with 0.4% DMSO were dispensed to control columns. Plates were incubated for 24 h at 37C, 5% CO2 then tempered for 10 min at room temperature. ATP content was quantified by adding 4 uL of CellTiter-Glo Reagent (Promega) according to the manufacturer's instructions. Luminescence was measured using a ViewLux.; format: functional, organism-based; details: Lister 427, CASY
Leishmania donovani [10] = test: as §2, with “THP-1 Host” for “Infected”, “THP-1 cell count” for “Percent of infected macrophage cells”; format: functional, organism-based, Homo sapiens
Leishmania donovani [11] = test: GSK_TCAKS: pIC50 Leishmania donovani viability assay using fluorescence intensity. Assay plates (1536-well) were prepared by adding 30nL per well of compound. For single shot assay, the final compound concentration was 5uM. […] Briefly, eGFP LdBOB axenic amastigotes were harvested, fixed and counted in a CASY cell counter (Roche-Applied Science). A final concentration of 1.5 * 10^5 cells per well were prepared in amastigote media containing 500 U/mL penicillin/streptomycin (Invitrogen) and 6uL was dispensed to each experimental well using a Multidrop Combi dispenser (Thermo Scientific). 6uL of assay media was dispensed to control columns used as reference for 100% compound response. Following incubation for 72 h at 37C, 5% CO2, 2 uL of resazurin was added to each well at a final concentration of 0.5 mM in phosphate buffered saline (PBS) with IGEPAL (Sigma-Aldrich), 0.05% (v/v).; format: functional, organism-based
[12] = GSK_TCAKS: pIC50 HepG2 human cell line viability assay using luminiscence. […] Seeding density was checked to ensure that new mono-layers were not more than 50% confluent at the time of harvesting. Cell suspension was added to 500 mL of the same medium at a final density of 1.2 * 10^5 cells/mL. This cell suspension was dispensed (25 uL, 3000 cells per well) into 384-well clear-bottom plates using a Multidrop Combi dispenser. Prior to addition of the cell suspension, the screening compounds (250 nL) were pre-dispensed into the plates with an Echo liquid handler. Plates were incubated for 48 h at 37C, 5% CO2. After incubation, plates equilibrated at room temperature for 30 min before proceeding to develop the luminescent signal. The signal developer, CellTiter-Glo Reagent, was allowed to equilibrate at room temperature for 30 min and added to the plates (25uL per well) using a Multidrop Combi dispenser. Plates were left for 10 min at room temperature for stabilization and then read using a ViewLux.; format: toxicity, cell-based

Sequence of Sterol 14-alpha demethylase (Q7Z1V1 whole entry): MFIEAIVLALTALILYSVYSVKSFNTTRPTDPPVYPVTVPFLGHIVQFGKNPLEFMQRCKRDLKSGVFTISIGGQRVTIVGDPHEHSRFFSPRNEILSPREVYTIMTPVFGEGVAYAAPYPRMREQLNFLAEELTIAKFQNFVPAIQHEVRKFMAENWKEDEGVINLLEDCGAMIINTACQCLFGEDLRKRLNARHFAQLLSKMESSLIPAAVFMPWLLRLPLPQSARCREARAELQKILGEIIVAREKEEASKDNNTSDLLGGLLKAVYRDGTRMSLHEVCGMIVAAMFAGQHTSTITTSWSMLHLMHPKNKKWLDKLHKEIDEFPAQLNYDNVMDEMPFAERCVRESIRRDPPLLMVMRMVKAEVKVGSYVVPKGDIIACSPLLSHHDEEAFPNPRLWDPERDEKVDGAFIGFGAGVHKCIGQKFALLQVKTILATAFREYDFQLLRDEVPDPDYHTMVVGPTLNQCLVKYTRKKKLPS

Row | Structure (SMILES) | IC50 (Trypanosoma cruzi [1]) [µM] | IC50 (Trypanosoma cruzi [2]) [µM] | IC50 [3] [µM] | IC50 (Trypanosoma cruzi [4]) [µM] | IC50 (Trypanosoma cruzi [5]) [µM] | IC50 (Leishmania donovani [6]) [µM] | IC50 [7] [µM] | IC50 (Leishmania donovani [8]) [µM] | IC50 [9] [µM] | IC50 (Leishmania donovani [10]) [µM] | IC50 (Leishmania donovani [11]) [µM] | IC50 at 48 h [12] [µM]
1 | Cc1nn(-c2nc(N)nc(-c3ccccn3)n2)c(N)c1-c1ccccc1 | 5.01 | 12.6 | 2 | 3.98 | 1.26 | 3.16 | > 100 | 2 | 6.31 | 20 | 5.01 | 63.1
2 | Nc1nccc(-c2csc(Nc3ccc(Cl)cc3)n2)n1 | > 50.1 | 2 | > 39.8 | 1.26 | > 50.1 | 1 | 1.26 | 1 | > 39.8 | > 50.1 | 3.98 | > 100
3 | Cc1ccc(S(C)(=O)=O)cc1Nc1nccc(-c2sc(N)nc2-c2ccccc2)n1 | 0.126 | 5.01 | 0.794 | 0.126 | 0.0794 | 5.01 | > 100 | 2.51 | 1.58 | 20 | 3.16 | 31.6
4 | CC(C)c1sc(Cl)nc1C(=O)NCCc1nc(C(=O)Nc2ccc3c(c2)OCO3)cs1 | 1 | > 50.1 | 25.1 | 4.47 | 0.631 | 5.01 | 7.94 | 2.51 | 25.1 | > 50.1 | 3.98 | > 100
5 | N#Cc1cccc(CNc2ccc(-c3cnn(CC4CC4)c(=O)c3C#N)cc2)c1 | 7.94 | > 50.1 | 10 | 5.01 | 5.01 | 1.26 | 6.31 | 0.251 | 12.6 | 6.31 | 25.1 | > 100
6 | CC(CCc1ccccc1)NC(=O)CN(Cc1ccccn1)Cc1ccccn1 (stereo not drawn) | 10 | > 79.4 | 10 | 2.51 | 3.16 | 3.16 | 63.1 | 3.16 | 5.01 | 20 | 7.94 | > 158
7 | N#CN1CC[C@@H](NC(=O)Nc2ccccc2Oc2ccccc2)C1 | 3.98 | 20 | 1 | 5.01 | 5.01 | 5.01 | > 100 | 3.98 | 7.94 | 25.1 | 3.16 | 39.8
8 | O=C(c1ccc(Cl)cc1)c1ccc(OC(=O)N2CCOCC2)cc1 | > 50.1 | > 50.1 | 7.94 | 12.6 | 6.31 | 5.01 | 39.8 | 2 | > 39.8 | > 50.1 | 6.31 | > 100
9 | Cc1cc2nc(CN(C)Cc3ncccc3C)[nH]c2cc1C | 1 | 12.6 | 0.631 | 0.501 | 0.501 | 0.631 | 79.4 | 0.501 | 0.631 | 7.94 | 5.01 | 39.8
